US6203835A, “Use of hydroxy acid or a product containing the same in animal feed” (Oy Extracta Ltd., priority 1995, dated 2001)
Where a name gives a salt, the structure may show the parent alone.

Experiments:
[1] = tested on: coliform bacterium strain (104); experiment: Effect of hydroxy acids on growth of coliform strain in vitro (turbidity 600 nm); assay type: cell-based; conditions: MRS medium, 37° C.; 0.03, 0.1 and 0.3% tested
Procedure: (§1) In the example, the sensitivity of microbes isolated from the small intestine of broiler chickens to hydroxy acids were measured under laboratory conditions. For the test, a representative test organism species from each of the bacterium groups mentioned above was chosen. Of the hydroxy acids, HMB (2-hydroxy-3-methyl butric acid) and HMV (2-hydroxy-4-methyl valeric acid) were separately tested using their a mixture of their L- and D-forms as well as the pure L-form. The acids were added to the MRS growth medium of the bacterium so that resulting concentrations were controlled to 0.03, 0.1 and 0.3%. The organism growth was followed at 37° C. by measuring the turbidity of the culture at 600 nm wavelength.

[2] = tested on: Enterococcus strain (111); experiment: Effect of hydroxy acids on growth of Enterococcus strain in vitro (turbidity 600 nm); assay type: cell-based; conditions: MRS medium, 37° C.; 0.03, 0.1 and 0.3% tested
Procedure: as §1

[3] = tested on: Salmonella infantis; experiment: Effect of hydroxy acids on growth of Salmonella infantis in vitro (turbidity 600 nm); assay type: cell-based; conditions: MRS medium, 37° C., 20 hours; 0.03, 0.1 and 0.3% tested
Procedure: In this example, an investigation was carried out into the sensitivity of Salmonella infantis bacterium representing the genus Salmonella to two hydroxy acids: L-2-hydroxy-3-methyl butyric acid (HMB) and L-2-hydroxy-4-methyl valeric acid (HMV). The acids were added to the MRS growth medium of the bacterium so that resulting concentrations were controlled to 0.03, 0.1 and 0.3%. The organism growth was followed at 37° C. for 20 hours by measuring the turbidity of the culture at 600 nm wavelength.

[4] = physchem; conditions: for pH of maximum buffer capacity: mixture of the acid and a salt of said acid with a strong base
From the text: (§2) The acting mechanism of alpha-hydroxy acids on microbes is unclear. It is plausible that these acids act as antimetabolites of the corresponding alpha-amino acids. […] After their resorption into the organism, these acids are metabolized through the same paths as the corresponding alpha-amino acids.

[5] = tested on: micro-organisms; experiment: Antimicrobial effect of hydroxy acids on micro-organisms in vitro
[6] = Intravenous LD50 in mice; conditions: mouse
From the text: as §2

[7] = tested on: leucine amino peptidase; conditions: cited from earlier work

With CC(C)C[C@H](O)C(=O)O [HMV, L-2-hydroxy-4-methyl valeric acid] the “hydroxy acid concentration effectively inhibiting growth” value [1] was 0.1%, the growth-inhibiting effect [2] was “clear growth-inhibiting effect” and the “hydroxy acid concentration clearly inhibiting growth” value [3] was 0.1%.

In the case of CC(C)CC(O)C(=O)O (racemic) [d,l-2-hydroxy-4-methyl valeric acid], the pKa [4] is reported as 3.8, the “pH of maximum buffer capacity” value [4] is reported as 3.8 pH and the “number of different micro-organisms on which an antimicrobial effect was shown” value [5] is reported as “about seventy”.

Compound CC(C)CC(O)C(=O)O (racemic) [Na-salt of d,l-2-hydroxy-4-methyl] has an LD50 ([6]; in vivo) of 650 mg/kg.

With CC(C)C(O)C(=O)O (racemic) [d,l-2-hydroxy-3-methyl butyric acid] the pKa [4] was 3.8, the “pH of maximum buffer capacity” value [4] was 3.8 pH and the “number of different micro-organisms on which an antimicrobial effect was shown” value [5] was “about seventy”.

In the case of CC(C)[C@H](O)C(=O)O [HMB, L-2-hydroxy-3-methyl butyric acid], the “hydroxy acid concentration effectively inhibiting growth” value [1] is reported as 0.1%, the growth-inhibiting effect [2] is reported as “clear growth-inhibiting effect” and the “hydroxy acid concentration clearly inhibiting growth” value [3] is reported as 0.1%.

In the case of CC(C)CC(O)C(=O)O (stereo not drawn) [2-hydroxy-4-methyl valeric acid], the “inhibition of leucine amino peptidase” value [7] is given as “competitive inhibitor”.

Work on CC(C)C(O)C(=O)O (racemic) [Na-salt of d,l-2-hydroxy-3-methyl] yielded an LD50 ([6]; iv) of 1080 mg/kg.
